Consider 9 compounds from US9175044B2, “Derivatives of glyco-CF2-serine and glyco-CF2-threonine” (TFCHEM, priority 2010, dated 2015).

The structures appear in SMILES notation.

In one series the target is T1, β-galactosidase (Escherichia coli, UniProt P00722).
T1 construct: purchased Sigma 48275
The class given is in vitro ADME. Conditions: 24 h at 37° C.; for hydrolysis after incubation with β-galactosidase, mass spectra with vs without enzyme: ammonium acetate buffer 10 mM pH 7, β-galactosidase 4.5 U, MS (ESI). Here is the method: The enzymatic stability has been performed with compound Ad1 and Ad2 according to the invention and compound B used as a reference compound to control the efficacy of the β-galactosidase. Both compounds have been treated with β-galactosidase. The stability of compound Ad1 and Ad2 has been assessed by mass spectrum (MS) analysis after incubation with β-galactosidase. The samples have been injected and ionized by electrospray (ES) (in positive and negative mode). The procedure has been adapted from Maljaars et al. J. Comb. Chem. 2006, 8, 812-819.
Test compound Ad1 (12 μmol, 5.3 mg) in 1.5 mL ammonium acetate buffer (10 mM, pH 7) was kept 24 h at 37° C. in the presence and absence of β-galactosidase (4.5 U, 32 μL of a 1 mg·mL^−1 solution in ammonium acetate buffer, (48275 sigma, 140 U per mg)). 300 μL of the sample was filtered through a 3-kDa-cutoff centrifugal filter (Millipore), and the filter was washed with H2O (2×300 μL). The obtained solutions were diluted in water/methanol 1:1 (3 μL in 1 mL).
Test compound Ad2 (12 μmol, 5.3 mg) has been treated in the presence and absence of β-galactosidase following the same process.
These samples of compound Ad1 and Ad2 in presence of β-galactosidase have been submitted to mass spectra and compared to the mass spectra of compound Ad1 and Ad2 in absence of β-galactosidase.
The two samples were also analyzed by F-NMR to confirm that the test compound Ad1 and Ad2 were not cleaved by the β-galactosidase.
In parallel, p-nitrophenyl-β-galactoside (compound B, 12 μmol, 3.6 mg) in 1.5 mL ammonium acetate buffer (10 mM, pH 7) was kept 24 h at 37° C. in the presence and absence of β-galactosidase (4.5 U, 32 μL of a 1 mg·mL^−1 solution in ammonium acetate buffer (48275 sigma, 140 U per mg)).
The optical density (OD) of the two samples was measured at 420 nm to verify that the β-galactosidase is working and that degradation occurs on compound B (OD420 with β-galactosidase=1.5786/OD420 without β-galactosidase=0.0465).

A further series has as its target T2, α-galactosidase (Coffea arabica, UniProt Q42656).
T2 construct: purchased Sigma G8507
Kind of series: Enzymatic stability of α-Gal-CF2-Ser pseudo-glycosidic bond with α-galactosidase. Type of series: in vitro ADME. As to conditions: 24 h at 37° C.; for hydrolysis after incubation with α-galactosidase, mass spectra with vs without enzyme: ammonium acetate buffer 10 mM pH 7, α-galactosidase 2.25 U, MS; for cleavage by α-galactosidase, F-NMR analysis: ammonium acetate buffer pH 7, α-galactosidase 2.25 U. The procedure:
The enzymatic stability has been performed with compounds Cd1, Cd2, Dd1 and Dd2 according to the invention and compound F was used as a reference compound to control the efficacy of the α-galactosidase. All the compounds have been treated with α-galactosidase. The stability of compounds Cd1, Cd2, Dd1 and Dd2 has been assessed by MS analysis after incubation with α-galactosidase. The procedure has been adapted from Maljaars et al. J. Comb. Chem. 2006, 8, 812-819.
Test compound Cd1 ([…], 1.8 mg) in 0.75 mL ammonium acetate buffer (10 mM, pH 7) was kept 24 h at 37° C. in the presence and absence of α-galactosidase (2.25 U, 41 μL of a 3.7 mg·mL^−1 suspension in ammonium sulphate (G8507 sigma, 14.7 U/mg)). 300 μL of the samples were filtered through a 3-kDa-cutoff centrifugal filter (Millipore) and the filter was washed with H2O (2×300 μL). The resultant solutions were diluted in water/methanol 1:1 (3 μL in 1 mL);
Test compound Cd2 ([…], 5.3 mg) has been treated in the presence and absence of α-galactosidase following the same process.
The samples of compound Cd1 and Cd2 in presence of α-galactosidase have been analyzed by mass spectrometry and their spectra compared to the mass spectra of compound Cd1 and Cd2 in absence of α-galactosidase.
The same procedure was applied to compound Dd1 ([…], 2.6 mg) and Dd2 ([…], 2.6 mg).
In parallel, p-nitrophenyl-α-galactoside (compound F, 6 μmol, 1.8 mg) in 0.75 mL of ammonium acetate buffer (10 mM, pH 7) was kept 24 h at 37° C. in the presence and absence of α-galactosidase 2.25 U, 41 μL of a 3.7 mg·mL^−1 suspension in ammonium sulphate ((G8507 sigma) 14.7 U/mg). The OD of the two samples was measured at 420 nm to verify that the α-galactosidase is working and that degradation occurs on compound F (OD420 with α-galactosidase=1.6303/OD420 without α-galactosidase=0.0124).

Series [1] relates to neonatal human skin fibroblasts (Cell line: CCD-27SK). In words: Preservation of neonatal skin fibroblasts under starvation conditions (Trypan blue viability assay). Type of series: cell-based. Conditions: for effect on skin fibroblasts under unfavorable conditions for growth: 5 mg/ml in starvation medium, 7 days. The procedure:
• The neonatal human skin fibroblasts (Cell line: CCD-27SK, ATCC number CRL-1475) were grown with DMEM medium supplemented with Fetal Bovine Serum 10% final, antibiotics (Penicillin/Streptomycin) 1% final and Amphotericin B 0.1% final. • Fibroblasts were grown in 75 cm^2 culture flask to 80% confluence, in 37° C. and 10% CO2 incubator. The medium was changed every two days by 37° C. preheated fresh medium. Starvation Medium • This medium was composed of 45% subculture medium without Fetal Bovine Serum mixed with 55% of Phosphate Buffer Saline 1× containing EDTA (final concentration of 0.45 mM). This was referred to as serum free or starvation medium. Product Preparation • The compounds 13(b)αd1 and 13(b)αd2 (M=479.9 g/mol) were diluted in starvation medium to 5 mg/ml final and pH was adjusted at 7.4 by addition of NaOH 1N. […] So, only the dead cells are blue at microscopic observation. • For sampling, 110 μl of Trypan Blue (SIGMA T8154) was added to 110 μl of trypsinated cell suspension of matching well for counting. • 200 μl of the trypan blue/cell mixture are dropped to a hemacytometer. Cells are counting by using a Neubauer-counting chamber. The unstained (viable) and stained (nonviable) cells are counted separately on 9 area of a large square (1 mm^2) and added to obtain the total number of cells per sample. An average of three counts was used to calculate the viability percentage as: [number of viable cells/total number of cells]*100 • The cell viability percentages from cultures under starvation conditions were compared with control culture for several days after their addition (D0, D3, D4, D5, D6, D7). Results

Setting [2] is: ammonium acetate buffer pH 7, β-galactosidase 4.5 U.

T2 sequence (Q42656 16-378): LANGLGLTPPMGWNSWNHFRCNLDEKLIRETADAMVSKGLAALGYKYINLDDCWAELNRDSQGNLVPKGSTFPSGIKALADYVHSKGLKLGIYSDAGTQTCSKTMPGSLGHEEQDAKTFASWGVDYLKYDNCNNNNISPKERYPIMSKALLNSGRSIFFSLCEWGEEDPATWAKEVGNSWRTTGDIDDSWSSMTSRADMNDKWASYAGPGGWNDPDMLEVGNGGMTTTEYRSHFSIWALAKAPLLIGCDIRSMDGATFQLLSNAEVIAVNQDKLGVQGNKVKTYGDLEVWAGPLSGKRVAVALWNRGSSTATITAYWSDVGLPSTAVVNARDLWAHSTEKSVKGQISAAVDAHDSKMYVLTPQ
T1 sequence (P00722 2-1024): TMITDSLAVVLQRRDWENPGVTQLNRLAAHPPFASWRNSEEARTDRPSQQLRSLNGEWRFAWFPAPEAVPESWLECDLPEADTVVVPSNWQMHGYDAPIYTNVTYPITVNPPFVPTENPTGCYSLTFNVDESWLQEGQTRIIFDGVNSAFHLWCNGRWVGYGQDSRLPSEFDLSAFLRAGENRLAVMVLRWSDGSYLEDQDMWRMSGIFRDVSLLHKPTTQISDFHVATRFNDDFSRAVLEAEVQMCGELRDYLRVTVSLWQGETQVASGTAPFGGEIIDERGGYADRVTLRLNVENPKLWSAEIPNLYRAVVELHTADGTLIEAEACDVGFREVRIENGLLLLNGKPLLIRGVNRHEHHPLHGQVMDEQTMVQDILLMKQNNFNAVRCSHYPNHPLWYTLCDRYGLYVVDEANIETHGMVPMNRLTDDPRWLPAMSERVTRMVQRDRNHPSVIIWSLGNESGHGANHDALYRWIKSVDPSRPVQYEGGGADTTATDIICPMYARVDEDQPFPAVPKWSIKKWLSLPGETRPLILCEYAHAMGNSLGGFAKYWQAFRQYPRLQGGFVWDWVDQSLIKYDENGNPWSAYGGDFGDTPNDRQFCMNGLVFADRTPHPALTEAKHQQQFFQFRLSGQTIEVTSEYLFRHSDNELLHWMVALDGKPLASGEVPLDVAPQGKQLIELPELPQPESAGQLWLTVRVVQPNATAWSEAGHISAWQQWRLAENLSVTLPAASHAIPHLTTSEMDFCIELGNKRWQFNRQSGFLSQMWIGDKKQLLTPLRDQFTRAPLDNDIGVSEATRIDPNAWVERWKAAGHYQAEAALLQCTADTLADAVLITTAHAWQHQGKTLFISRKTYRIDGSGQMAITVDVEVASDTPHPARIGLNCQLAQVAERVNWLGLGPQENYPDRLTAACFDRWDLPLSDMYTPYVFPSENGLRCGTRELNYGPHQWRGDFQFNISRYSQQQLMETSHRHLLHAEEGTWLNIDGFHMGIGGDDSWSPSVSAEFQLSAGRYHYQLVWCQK

As to `O=[N+]([O-])c1ccc(O[C@@H]2O[C@H](CO)[C@H](O)[C@H](O)[C@H]2O)cc1` [B, p-nitrophenyl-β-galactoside, reference compound], on β-galactosidase (setting [2]), the “visual observation in the presence of β-galactosidase (decomposition)” value was “yellow coloration was observed”.

On to `C[C@H](NC(=O)[C@H](C)NC(=O)C(N)CC(F)(F)[C@H]1O[C@H](CO)[C@H](O)[C@H](O)[C@H]1O)C(=O)O` (single isomer, unassigned) [Dd2], for which, on α-galactosidase, the “hydrolysis after incubation with α-galactosidase, mass spectra with vs without enzyme” value was “no hydrolysis occurs” and the “cleavage by α-galactosidase, F-NMR analysis” value (shortened to “cleavage by α-galactosidase”) is “not cleaved”. In the case of `C[C@H](NC(=O)[C@H](C)NC(=O)C(N)CC(F)(F)[C@@H]1O[C@H](CO)[C@H](O)[C@H](O)[C@H]1O)C(=O)O` (stereo partly shown) [Ad2], the “hydrolysis after incubation with β-galactosidase, mass spectra with vs without enzyme” value on β-galactosidase is given as “no hydrolysis occurs”. The “cleavage by β-galactosidase, F-NMR analysis” value at β-galactosidase (setting [2]) is recorded as “not cleaved”. Take `C[C@H](NC(=O)[C@H](C)NC(=O)C(N)CC(F)(F)[C@H]1O[C@H](CO)[C@H](O)[C@H](O)[C@H]1O)C(=O)O` (single isomer, unassigned) [13(b)αd2]: the “effect on skin fibroblasts under unfavorable conditions for growth” value in series [1] is “preservative effect”. In the case of `NC(CC(F)(F)[C@H]1O[C@H](CO)[C@H](O)[C@H](O)[C@H]1O)C(=O)O` (stereo partly shown) [Cd2], on α-galactosidase, the “hydrolysis after incubation with α-galactosidase, mass spectra with vs without enzyme” value was “no hydrolysis occurs” and the “cleavage by α-galactosidase” value is “not cleaved”. The matching figures for `NC(CC(F)(F)[C@H]1O[C@H](CO)[C@H](O)[C@H](O)[C@H]1O)C(=O)O` (stereo partly shown) [Cd1]: “no hydrolysis occurs” and “not cleaved”. As for `C[C@H](NC(=O)[C@H](C)NC(=O)C(N)CC(F)(F)[C@H]1O[C@H](CO)[C@H](O)[C@H](O)[C@H]1O)C(=O)O` (single isomer, unassigned) [Dd1], on α-galactosidase, the “hydrolysis after incubation with α-galactosidase, mass spectra with vs without enzyme” value is recorded as “no hydrolysis occurs” and the “cleavage by α-galactosidase” value is “not cleaved”. For orientation: viability means the share of living cells, or the viability signal relative to a control. In the case of `C[C@H](NC(=O)[C@H](C)NC(=O)C(N)CC(F)(F)[C@H]1O[C@H](CO)[C@H](O)[C@H](O)[C@H]1O)C(=O)O` (single isomer, unassigned) [13(b)αd1], the “effect on skin fibroblasts under unfavorable conditions for growth” value in series [1] is “preservative effect”. Also, in series [1] (Homo sapiens, CCD-27Sk, 168 h, 5 mg/ml in starvation (serum free) medium, up to 7 days of incubation, Trypan blue exclusion, read-out: fibroblast viability), the viability at 5000 µg/mL was approximately 95%. On to `C[C@H](NC(=O)[C@H](C)NC(=O)C(N)CC(F)(F)[C@@H]1O[C@H](CO)[C@H](O)[C@H](O)[C@H]1O)C(=O)O` (stereo partly shown) [Ad1], for which, at β-galactosidase, the “hydrolysis after incubation with β-galactosidase, mass spectra with vs without enzyme” value is reported as “no hydrolysis occurs”. The “cleavage by β-galactosidase, F-NMR analysis” value on β-galactosidase (setting [2]) is on record as “not cleaved”.
